Patent publication US20240228555A9, “ANTIMICROBIAL PEPTIDOMIMETICS” (Basilea Pharmaceutica International AG, Allschwil, priority 2020, published 2024)
Where a SMILES comes first, the peptide text is derived from it.

Key:
[1] = system: human red blood cells (hRBC); assay type: cell-based; settings: red cells of human, 1 h, 0.2 g/L
How it was run: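 PBS-washed human erythrocytes (20% v/v) were incubated with compounds at 200 μg/mL for 1 h at 37° C with shaking. Supernatant OD540 was read after 8-fold dilution; hemolysis % = OD540 peptide / OD540 of the 100% lysis control (2.5% Triton X-100 in H2O) ×100, with PBS as 0%.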

[2] = system: Escherichia coli MCR-1 Af 45; settings: Mueller-Hinton broth II, no visible growth after 18-20 hours at 35° C.
How it was run: (§1)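 Activity is measured against peptides serially diluted two-fold in water with 0.002% final Polysorbate 80. The cells are in cation-adjusted MHII broth at roughly 5×10^5 CFU/mL, prepared from a 0.5 McFarland suspension in 0.85% NaCl.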

[3] = system: Escherichia coli ATCC 25922; settings: ATCC 25922
How it was run: as §1

[4] = system: Klebsiella pneumoniae SSI3010; settings: SSI3010
How it was run: as §1

Compound	Hemolysis at 0.2 g/L [1]	Escherichia coli MCR-1 Af 45 MIC [2]	Escherichia coli ATCC 25922 MIC [3]	Klebsiella pneumoniae SSI3010 MIC [4]
CC[C@H](C)[C@H](NC(=O)[C@@H](NC(=O)[C@@H]1C[C@@H](O)CN1C(=O)[C@@H](N)C(C)C)[C@@H](C)CC)C(=O)N[C@@H](Cc1ccc(O)cc1)C(=O)N[C@@H]1C(=O)N[C@@H](CC(N)=O)C(=O)N[C@@H](CCCNC(=N)N)C(=O)N[C@@H](CCCN)C(=O)N[C@@H]([C@@H](C)O)C(=O)N[C@H](CCN)C(=O)N[C@@H]([C@@H](C)CC)C(=O)N[C@H](C(=O)N[C@@H](CCN)C(=O)N[C@@H](CCCNC(=N)N)C(=O)N[C@@H](Cc2ccc(O)cc2)C(=O)O)CSSC1(C)C [Example 121, Val-Hyp-Ile-Ile-Tyr-Pen-Asn-Arg-Orn-Thr-^DDab-Ile-Cys-Dab-Arg-Tyr] (HELM PEPTIDE1{V.[Hyp].I.I.Y.[Pen].N.R.[Orn].T.[NCC[C@@H](N[*:1])C(=O)[*:2]].I.C.[Dab].R.Y}$PEPTIDE1,PEPTIDE1,6:R3-13:R3$$$V2.0)	<1%	0.25 mg/L	0.25 mg/L	0.5 mg/L
CC[C@H](C)[C@H](NC(=O)[C@@H]1C[C@@H](O)CN1C(=O)[C@@H](N)C(C)C)C(=O)N[C@@H](CCCN)C(=O)N[C@@H](Cc1ccc(O)cc1)C(=O)N[C@@H]1C(=O)N[C@@H](CC(N)=O)C(=O)N[C@@H](CCCNC(=N)N)C(=O)N[C@@H](CCN)C(=O)N[C@@H]([C@@H](C)O)C(=O)N[C@H](CCN)C(=O)N[C@@H](CCCCN)C(=O)N[C@H](C(=O)N[C@@H](CCN)C(=O)N[C@H](C(=O)N[C@@H](Cc2ccc(O)cc2)C(=O)O)[C@@H](C)O)CSSC1(C)C [Example 122, Val-Hyp-Ile-Orn-Tyr-Pen-Asn-Arg-Dab-Thr-^DDab-Lys-Cys-Dab-Thr-Tyr] (HELM PEPTIDE1{V.[Hyp].I.[Orn].Y.[Pen].N.R.[Dab].T.[NCC[C@@H](N[*:1])C(=O)[*:2]].K.C.[Dab].T.Y}$PEPTIDE1,PEPTIDE1,6:R3-13:R3$$$V2.0)	<1%	0.125 mg/L	0.25 mg/L	0.5 mg/L
CC[C@H](C)[C@@H]1NC(=O)[C@@H](NC(=O)[C@H](Cc2ccc(O)cc2)NC(=O)[C@@H](NC(=O)[C@@H](NC(=O)[C@@H]2C[C@@H](O)CN2C(=O)[C@@H](N)C(C)C)[C@@H](C)CC)[C@@H](C)O)C(C)(C)SSC[C@@H](C(=O)N[C@@H](CCN)C(=O)N[C@@H](CCCNC(=N)N)C(=O)N[C@@H](Cc2ccc(O)cc2)C(=O)O)NC(=O)[C@H](CCCN)NC(=O)[C@@H](CCN)NC(=O)[C@H]([C@@H](C)O)NC(=O)[C@H](CCN)NC(=O)[C@H](CCCNC(=N)N)NC1=O [Example 123, Val-Hyp-Ile-Thr-Tyr-Pen-Ile-Arg-Dab-Thr-^DDab-Orn-Cys-Dab-Arg-Tyr] (HELM PEPTIDE1{V.[Hyp].I.T.Y.[Pen].I.R.[Dab].T.[NCC[C@@H](N[*:1])C(=O)[*:2]].[Orn].C.[Dab].R.Y}$PEPTIDE1,PEPTIDE1,6:R3-13:R3$$$V2.0)	<1%	0.125 mg/L	0.0625 mg/L	0.125 mg/L
CC[C@H](C)[C@H](NC(=O)[C@@H](NC(=O)[C@@H]1C[C@@H](O)CN1C(=O)[C@@H](N)C(C)C)[C@@H](C)CC)C(=O)N[C@@H](Cc1ccc(O)cc1)C(=O)N[C@@H]1C(=O)N[C@@H](CC(N)=O)C(=O)N[C@@H](CCCNC(=N)N)C(=O)N[C@@H](CCCNC(N)=O)C(=O)N[C@@H]([C@@H](C)O)C(=O)N[C@H](CCN)C(=O)N[C@@H](CCCCN)C(=O)N[C@H](C(=O)N[C@@H](CCN)C(=O)N[C@@H](CCCNC(=N)N)C(=O)N[C@@H](Cc2ccc(O)cc2)C(=O)O)CSSC1(C)C [Example 124, Val-Hyp-Ile-Ile-Tyr-Pen-Asn-Arg-Cit-Thr-^DDab-Lys-Cys-Dab-Arg-Tyr] (HELM PEPTIDE1{V.[Hyp].I.I.Y.[Pen].N.R.[Cit].T.[NCC[C@@H](N[*:1])C(=O)[*:2]].K.C.[Dab].R.Y}$PEPTIDE1,PEPTIDE1,6:R3-13:R3$$$V2.0)	<1%	0.25 mg/L	0.25 mg/L	0.5 mg/L
CC[C@H](C)[C@H](NC(=O)[C@@H]1C[C@@H](O)CN1C(=O)[C@@H](N)C(C)C)C(=O)N[C@@H](CCCCNC)C(=O)N[C@@H](Cc1ccc(O)cc1)C(=O)N[C@@H]1C(=O)N[C@@H](CC(N)=O)C(=O)N[C@@H](CCCNC(=N)N)C(=O)N[C@@H](CCN)C(=O)N[C@@H]([C@@H](C)O)C(=O)N[C@H](CCN)C(=O)N[C@@H](CCCCN)C(=O)N[C@H](C(=O)N[C@@H](CCN)C(=O)N[C@@H](CCCNC(=N)N)C(=O)N[C@@H](Cc2ccc(O)cc2)C(=O)O)CSSC1(C)C [Example 125, Val-Hyp-Ile-Lys(Me)-Tyr-Pen-Asn-Arg-Dab-Thr-^DDab-Lys-Cys-Dab-Arg-Tyr] (HELM PEPTIDE1{V.[Hyp].I.[CNCCCC[C@H](N[*:1])C(=O)[*:2]].Y.[Pen].N.R.[Dab].T.[NCC[C@@H](N[*:1])C(=O)[*:2]].K.C.[Dab].R.Y}$PEPTIDE1,PEPTIDE1,6:R3-13:R3$$$V2.0)	<1%	0.03125 mg/L	0.125 mg/L	0.5 mg/L
CC[C@H](C)[C@H](NC(=O)[C@@H]1C[C@@H](O)CN1C(=O)[C@@H](N)C(C)C)C(=O)N[C@H](C(=O)N[C@@H](Cc1ccc(O)cc1)C(=O)N[C@@H]1C(=O)N[C@@H](CC(N)=O)C(=O)N[C@@H](CCCNC(=N)N)C(=O)N[C@@H](CCN)C(=O)N[C@@H]([C@@H](C)O)C(=O)N[C@H](CCN)C(=O)N[C@@H](CCCCN)C(=O)N[C@H](C(=O)N[C@@H](CCN)C(=O)N[C@@H](CCCNC(=N)N)C(=O)N[C@@H](Cc2ccc(O)cc2)C(=O)O)CSSC1(C)C)C(C)(C)O [Example 126, Val-Hyp-Ile-Val(3OH)-Tyr-Pen-Asn-Arg-Dab-Thr-^DDab-Lys-Cys-Dab-Arg-Tyr] (HELM PEPTIDE1{V.[Hyp].I.[CC(C)(O)[C@H](N[*:1])C(=O)[*:2]].Y.[Pen].N.R.[Dab].T.[NCC[C@@H](N[*:1])C(=O)[*:2]].K.C.[Dab].R.Y}$PEPTIDE1,PEPTIDE1,6:R3-13:R3$$$V2.0)	<1%	0.0625 mg/L	0.0625 mg/L	0.125 mg/L
CC[C@H](C)[C@H](NC(=O)[C@@H]1CC(F)(F)CN1C(=O)[C@@H](N)C(C)C)C(=O)N[C@H](C(=O)N[C@@H](Cc1ccc(O)cc1)C(=O)N[C@@H]1C(=O)N[C@@H](CC(N)=O)C(=O)N[C@@H](CCCNC(=N)N)C(=O)N[C@@H](CCN)C(=O)N[C@@H]([C@@H](C)O)C(=O)N[C@H](CCN)C(=O)N[C@@H](CCCCN)C(=O)N[C@H](C(=O)N[C@@H](CCN)C(=O)N[C@@H](CCCNC(=N)N)C(=O)N[C@@H](Cc2ccc(O)cc2)C(=O)O)CSSC1(C)C)[C@@H](C)O [Example 127, Val-Pro(4,4F2)-Ile-Thr-Tyr-Pen-Asn-Arg-Dab-Thr-^DDab-Lys-Cys-Dab-Arg-Tyr] (HELM PEPTIDE1{V.[O=C([C@@H]1CC(F)(F)CN1[*:1])[*:2]].I.T.Y.[Pen].N.R.[Dab].T.[NCC[C@@H](N[*:1])C(=O)[*:2]].K.C.[Dab].R.Y}$PEPTIDE1,PEPTIDE1,6:R3-13:R3$$$V2.0)	<1%	0.125 mg/L	0.25 mg/L	0.5 mg/L
CC[C@H](C)[C@H](NC(=O)[C@@H]1C=CCN1C(=O)[C@@H](N)C(C)C)C(=O)N[C@H](C(=O)N[C@@H](Cc1ccc(O)cc1)C(=O)N[C@@H]1C(=O)N[C@@H](CC(N)=O)C(=O)N[C@@H](CCCNC(=N)N)C(=O)N[C@@H](CCN)C(=O)N[C@@H]([C@@H](C)O)C(=O)N[C@H](CCN)C(=O)N[C@@H](CCCCN)C(=O)N[C@H](C(=O)N[C@@H](CCN)C(=O)N[C@@H](CCCNC(=N)N)C(=O)N[C@@H](Cc2ccc(O)cc2)C(=O)O)CSSC1(C)C)[C@@H](C)O [Example 128, Val-Pro(3,4dehydro)-Ile-Thr-Tyr-Pen-Asn-Arg-Dab-Thr-^DDab-Lys-Cys-Dab-Arg-Tyr] (HELM PEPTIDE1{V.[O=C([C@@H]1C=CCN1[*:1])[*:2]].I.T.Y.[Pen].N.R.[Dab].T.[NCC[C@@H](N[*:1])C(=O)[*:2]].K.C.[Dab].R.Y}$PEPTIDE1,PEPTIDE1,6:R3-13:R3$$$V2.0)	<1%	0.125 mg/L	0.125 mg/L	0.25 mg/L
